This note sets out measurements from publication PMC5729429, “Gimatecan exerts potent antitumor activity against gastric cancer in vitro and in vivo via AKT and MAPK signaling pathways” (Journal of Translational Medicine, 2017).

Counter-ions that a name gives are not always drawn.

In one series the test system is MGC803 cells. The series is described as follows: Cell viability assay (CCK-8), MGC803. The series is classed as cell-based. Particulars: Homo sapiens, MGC-803, Fig. S1B 48 h exposure, 0–1 µM, read-out: IC50 antiproliferative effect. The method, then: Human GC cell lines SNU-1, HGC27 and MGC803 were purchased from Peking Union Medical College, and the NCI-N87 cell line was a gift from You-yong Lv, Ph.D. (Peking University Cancer Hospital and Institute). Cells were cultured in RPMI 1640 medium and Dulbecco’s Modified Eagle Medium (Gibco-BRL, MD, USA), respectively, supplemented with 10% fetal bovine serum (Gibco-BRL), 100 U/ml penicillin (Gibco-BRL) and […] streptomycin (Gibco-BRL). Cells were incubated in a humidified incubator (37 °C) supplemented with 5% CO2.
[…] Cell viability was measured using a Cell Counting Kit-8 (Dojindo, Kumamoto, Japan) according to the manufacturer’s instructions. Absorbance at 450 nm was measured using a microplate spectrophotometer. All experiments were repeated at least three times.

The next series concerns DNA TopI. The series can be described thus: Western blot of DNA TopI expression in GC cells. To be noted: SNU-1, HGC27 and NCI-N87; 48 h; gimatecan at 100 nM or more; irinotecan even at high concentrations. The series is classed as cell-based, human. The method, then: SNU-1, HGC27 and NCI-N87 cells were starved in serum-free medium overnight, exposed to inhibitors for 48 h and harvested at 70–80% confluence. Total protein was extracted from cells or xenograft tissues on ice, using RIPA Lysis Buffer (Beyotime, Shanghai, China) supplemented with complete protease inhibitor and phosphatase inhibitor cocktail (Roche, Basel, Switzerland). Protein concentration was measured using a BCA Protein Assay Kit (Beyotime, Shanghai, China), and 50 μg protein from each sample was separated by 10% SDS-PAGE. After transfer to nitrocellulose membranes (GE Healthcare, Piscataway, NJ), samples were incubated with corresponding primary antibodies diluted in 5% BSA at 4 °C overnight and then with secondary antibodies at room temperature for 1 h. Proteins were visualized with a chemiluminescent detection system (GE Healthcare), using ECL plus Western blot reagents (GE Healthcare). Western-blotting bands were quantified and normalized by ImageJ software.
Cells were starved in serum-free medium overnight, exposed to gimatecan or irinotecan for 48 h and harvested at 70–80% confluence. Total protein of SNU-1 and NCI-N87 was extracted and the expression of TopI, pAKT, pMEK, pERK, p-p38 MAPK and pJNK2 were assessed by western-blotting followed by quantification and normalization by ImageJ. All data are mean ± SD of three independent experiments. Compared with controls, *p < 0.05
(Immunoblotting shows a protein as a band on a membrane.)

The subject of series [1] is GC patient-derived xenografts (PDX). The series can be described thus: Tumor growth inhibition in GC patient-derived xenograft (PDX) models. To be noted: for TGIs (%): gimatecan 0.2 mg/kg daily oral gavage, irinotecan 20 mg/kg weekly i.p., 3 weeks; for antitumor activity compared with control groups: all five xenografts. Type of series: in vivo, NOD/SCID mice. As for the experimental part: Establishment and serial passaging of GC patient-derived xenografts (PDX) models were as previously described. All procedures were performed under sterile conditions at an SPF facility and carried out in accordance with the guide for the Care and Use of Laboratory Animals of the National Institutes of Health. Animal experiments were approved by an independent ethics committee of Peking University Cancer Hospital.
Five PDX tissues were subcutaneously inoculated into the flanks of 6-week-old female non-obese diabetic/severe combined immunodeficiency (NOD/SCID) mice. When tumors reached 150–250 mm^3, mice were randomized to three groups (N = 5/group) with similar tumor volumes: (1) control group (physiological saline 100 µl daily, by orally gavage), (2) gimatecan group (gimatecan 0.2 mg/kg daily, by orally gavage) and (3) irinotecan group (irinotecan 20 mg/kg via weekly intraperitoneal injection). All animals were treated for 3 weeks. Tumor size and body weight were measured twice a week, and tumor volume was calculated using the following formula: V = (L × W^2)/2 (V, volume; L, length; W, width). Tumor growth inhibition (TGI) was calculated using the following formula: TGI = 1 − ΔT/ΔC × 100% (ΔT = tumor volume changes of the drug treated group, ΔC = tumor volume changes of the control group on the final day of the study).
A PDX model was established by subcutaneously transplanting tumor tissues of a patient into NOD/SCID mice and PDX 1–5 indicated PDX models from 5 different GC patients. PDX tissues were subcutaneously inoculated into mice, and when the tumor size reached 150–250 mm^3, mice (n = 5 in each group) were treated with buffer control or inhibitors. Tumor volumes were presented as mean ± SD. The antitumor activity is depicted by tumor growth inhibition (TGI). […] (ΔT = tumor volume change of the drug-treated group, ΔC = tumor volume change of the control group on the final day of the study). *p < 0.05, **p < 0.01, ***p < 0.001. b Immunohistochemical staining for Ki-67 of xenografts on day 22 of treatment from four PDX models. The ki-67 index, marker of cell proliferation, was calculated as the proportion of positive tumor cell nuclei in all tumor cells examined and labeled in red in the images. Scale bar represents 100 µm TEXT PRINTED IN THE PICTURE: (b) Vehicle: PDX 2: 100%; PDX 3: 70%; PDX 4: 70%; PDX 5: 40% | (b) Irinotecan: PDX 2: 60%; PDX 3: 70%; PDX 4: 60%; PDX 5: 50% | (b) Gimatecan: PDX 2: 60%; PDX 3: 10%; PDX 4: 40%; PDX 5: 10% DOUBTS OF THE COPYIST ABOUT THIS PICTURE: Vehicle, PDX 3: 70% or 20% (blurred red print on the image) / Vehicle, PDX 4: 70% or 20% / Vehicle, PDX 5: 40%, first digit blurred / Irinotecan, PDX 2: 60% or 80% or 50% / Irinotecan, PDX 3: 70% or 20% / Irinotecan, PDX 4: 60% or 50% or 80% / Irinotecan, PDX 5: 50% or 60% or 30% / Gimatecan, PDX 2: 60% or 50% or 80% / Gimatecan, PDX 4: 40%, first digit blurred / The measure of the percentages in panel b is not printed in the picture
(In general: Xenograft models place foreign cells or tissue in a host animal.)

Series [2] has as its system normal immortalized gastric epithelial cell line. The series can be described thus: Growth inhibition of normal gastric epithelial cells. The series is classed as cell-based. To be noted: data not shown.

As for `CC[C@@]1(O)C(=O)OCc2c1cc1n(c2=O)Cc2c-1nc1ccccc1c2/C=N/OC(C)(C)C` [Gimatecan, 7-t-butoxyiminomethylcamptothecin], the half-inhibitory concentration (IC50) – broadly, the concentration at which inhibition is half-maximal – with MGC803 cells was 3.29 nM. For the same molecule, the “expression of DNA TopI” value with DNA TopI is “significantly inhibited”. Further, the “TGIs (%)” value worked out at 110.1% in series [1] (PDX model 1); 106.6% in series [1] (PDX model 2); 84.4% in series [1] (PDX model 3); 91.7% in series [1] (PDX model 4); 108.7% in series [1] (PDX model 5). The “antitumor activity compared with control groups” value in series [1] is “significant antitumor activity”. Also, the “growth inhibition in normal cells” value in series [2] is “weak growth inhibition”.
Consider `CCc1c2c(nc3ccc(OC(=O)N4CCC(N5CCCCC5)CC4)cc13)-c1cc3c(c(=O)n1C2)COC(=O)[C@]3(O)CC` [Irinotecan, irinotecan hydrochloride], for which, in the series on DNA TopI, the “expression of DNA TopI” value is listed as “little effect”. Also, the “TGIs (%)” value was 75.4% in series [1] (PDX model 1); 76.1% in series [1] (PDX model 2); 24.1% in series [1] (PDX model 3); 15.1% in series [1] (PDX model 4); 40.6% in series [1] (PDX model 5). Moreover, the “antitumor activity compared with control groups” value in series [1] is “significant antitumor activity”.
